Measured values taken from publication PMC3399817 (PLoS ONE, 2012).

Tests used:
Assay in all cases: KINOMEscan
Type in all cases: binding
[1] = molecular target: T1, RPS6KA2(Kin.Dom.2-C-terminal) (Homo sapiens, UniProt Q15349); conditions: 1 uM
T1 construct: RPS6KA2(Kin.Dom.2-C-terminal); purchased Ambit KINOMEscan (DiscoverX)
In short: (§1)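 Compounds were each tested at a single concentration of 1 μM in a binding-based kinase panel.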

[2] = molecular target: T2, RPS6KA2(Kin.Dom.1-N-terminal) (Homo sapiens, UniProt Q15349); conditions: 1 uM
T2 construct: RPS6KA2(Kin.Dom.1-N-terminal); purchased Ambit KINOMEscan (DiscoverX)
In short: as §1

[3] = molecular target: T3, FLT3(R834Q) (Homo sapiens, UniProt P36888, R834Q); conditions: 1 uM
T3 construct: purchased Ambit KINOMEscan (DiscoverX)
In short: as §1

[4] = molecular target: T4, CLK1 (Homo sapiens, UniProt P49759); conditions: CLK1, 1 uM
T4 construct: purchased Ambit KINOMEscan (DiscoverX)
T4 sequence (P49759 whole entry): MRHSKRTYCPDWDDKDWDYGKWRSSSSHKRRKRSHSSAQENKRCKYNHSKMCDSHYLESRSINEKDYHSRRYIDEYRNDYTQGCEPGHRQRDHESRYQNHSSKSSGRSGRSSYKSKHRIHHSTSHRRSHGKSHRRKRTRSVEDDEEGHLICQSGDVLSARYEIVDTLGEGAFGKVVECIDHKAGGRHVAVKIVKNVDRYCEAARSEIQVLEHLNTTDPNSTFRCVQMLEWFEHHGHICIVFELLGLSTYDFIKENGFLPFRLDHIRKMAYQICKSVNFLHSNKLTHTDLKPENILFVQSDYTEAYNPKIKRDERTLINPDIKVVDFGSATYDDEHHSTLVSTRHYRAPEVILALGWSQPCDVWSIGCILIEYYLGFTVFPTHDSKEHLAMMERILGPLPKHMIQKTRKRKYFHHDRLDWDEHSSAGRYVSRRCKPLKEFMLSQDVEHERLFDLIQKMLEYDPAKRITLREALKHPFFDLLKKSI
In short: as §1

[5] = molecular target: T5, EGFR(L858R,T790M) (Homo sapiens, UniProt P00533, L858R/T790M); conditions: 1 uM
T5 construct: purchased Ambit KINOMEscan (DiscoverX)
In short: as §1

[6] = molecular target: T6, LRRK2(G2019S) (Homo sapiens, UniProt Q5S007, G2019S); conditions: 1 uM
T6 construct: purchased Ambit KINOMEscan (DiscoverX)
T6 sequence (Q5S007 whole entry G2019S): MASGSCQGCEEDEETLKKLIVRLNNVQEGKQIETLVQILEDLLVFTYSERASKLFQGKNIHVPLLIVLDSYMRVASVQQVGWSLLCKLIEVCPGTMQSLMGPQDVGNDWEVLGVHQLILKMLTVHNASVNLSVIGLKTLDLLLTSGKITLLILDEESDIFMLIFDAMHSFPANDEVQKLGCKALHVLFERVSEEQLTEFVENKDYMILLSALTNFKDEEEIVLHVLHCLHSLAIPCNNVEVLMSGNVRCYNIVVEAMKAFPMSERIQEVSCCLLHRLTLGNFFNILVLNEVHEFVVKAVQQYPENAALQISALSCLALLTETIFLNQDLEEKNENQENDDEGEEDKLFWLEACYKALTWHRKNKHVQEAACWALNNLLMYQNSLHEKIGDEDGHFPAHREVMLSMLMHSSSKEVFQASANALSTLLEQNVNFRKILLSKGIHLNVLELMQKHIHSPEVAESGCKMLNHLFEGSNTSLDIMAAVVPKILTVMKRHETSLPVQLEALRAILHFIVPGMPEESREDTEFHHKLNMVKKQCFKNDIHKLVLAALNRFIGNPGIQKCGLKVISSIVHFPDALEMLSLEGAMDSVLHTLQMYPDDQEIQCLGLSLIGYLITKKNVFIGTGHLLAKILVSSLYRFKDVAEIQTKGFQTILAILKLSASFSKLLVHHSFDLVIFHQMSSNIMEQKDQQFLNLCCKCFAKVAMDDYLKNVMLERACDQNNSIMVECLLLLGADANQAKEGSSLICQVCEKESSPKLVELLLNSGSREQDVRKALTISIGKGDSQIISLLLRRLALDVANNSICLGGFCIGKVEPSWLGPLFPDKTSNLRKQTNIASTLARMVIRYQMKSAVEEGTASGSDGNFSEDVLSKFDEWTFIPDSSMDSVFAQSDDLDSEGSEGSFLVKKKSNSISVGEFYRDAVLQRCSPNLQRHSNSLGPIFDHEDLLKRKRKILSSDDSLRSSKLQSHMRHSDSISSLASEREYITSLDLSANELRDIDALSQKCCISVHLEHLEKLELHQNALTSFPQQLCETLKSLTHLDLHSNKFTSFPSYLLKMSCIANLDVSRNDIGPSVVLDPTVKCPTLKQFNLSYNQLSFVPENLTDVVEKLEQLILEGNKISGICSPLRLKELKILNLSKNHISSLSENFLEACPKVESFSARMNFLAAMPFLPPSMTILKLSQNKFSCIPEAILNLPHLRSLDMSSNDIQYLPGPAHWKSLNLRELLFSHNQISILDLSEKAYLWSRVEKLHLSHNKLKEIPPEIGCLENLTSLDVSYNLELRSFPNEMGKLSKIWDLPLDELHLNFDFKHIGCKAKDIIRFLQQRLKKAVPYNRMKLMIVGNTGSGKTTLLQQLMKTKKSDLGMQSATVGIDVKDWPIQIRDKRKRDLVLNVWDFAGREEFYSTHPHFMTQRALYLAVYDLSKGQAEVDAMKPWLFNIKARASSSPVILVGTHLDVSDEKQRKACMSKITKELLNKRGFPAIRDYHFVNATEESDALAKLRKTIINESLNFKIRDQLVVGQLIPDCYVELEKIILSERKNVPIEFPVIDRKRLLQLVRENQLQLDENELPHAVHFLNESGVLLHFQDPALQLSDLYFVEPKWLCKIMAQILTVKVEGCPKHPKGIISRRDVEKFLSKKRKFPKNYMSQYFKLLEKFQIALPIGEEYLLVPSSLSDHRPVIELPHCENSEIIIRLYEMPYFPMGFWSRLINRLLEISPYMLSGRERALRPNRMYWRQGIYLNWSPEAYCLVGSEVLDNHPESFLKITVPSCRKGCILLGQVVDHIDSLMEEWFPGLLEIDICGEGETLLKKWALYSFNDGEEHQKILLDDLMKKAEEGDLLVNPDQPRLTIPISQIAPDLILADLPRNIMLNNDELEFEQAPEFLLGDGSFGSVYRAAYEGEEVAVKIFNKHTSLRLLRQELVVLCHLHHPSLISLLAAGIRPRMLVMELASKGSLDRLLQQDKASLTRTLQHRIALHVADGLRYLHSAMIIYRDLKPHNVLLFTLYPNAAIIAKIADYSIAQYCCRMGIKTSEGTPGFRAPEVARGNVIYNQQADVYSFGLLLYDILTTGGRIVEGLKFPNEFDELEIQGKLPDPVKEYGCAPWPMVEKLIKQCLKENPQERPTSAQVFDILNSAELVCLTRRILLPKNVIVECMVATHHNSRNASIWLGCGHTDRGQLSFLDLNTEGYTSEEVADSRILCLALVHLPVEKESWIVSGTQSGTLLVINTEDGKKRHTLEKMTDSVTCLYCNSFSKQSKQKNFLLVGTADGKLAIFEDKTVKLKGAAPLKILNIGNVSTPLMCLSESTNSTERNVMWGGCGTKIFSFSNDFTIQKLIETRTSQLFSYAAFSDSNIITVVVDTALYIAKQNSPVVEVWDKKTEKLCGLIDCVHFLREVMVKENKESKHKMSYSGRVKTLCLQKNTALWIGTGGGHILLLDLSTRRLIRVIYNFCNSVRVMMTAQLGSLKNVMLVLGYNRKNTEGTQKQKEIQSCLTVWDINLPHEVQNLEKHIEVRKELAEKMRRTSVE
In short: as §1

[7] = molecular target: T7, YANK1 (Homo sapiens, UniProt Q8WU08); conditions: YANK1, 1 uM
T7 construct: purchased Ambit KINOMEscan (DiscoverX)
In short: as §1

[8] = molecular target: T8, RIPK5 (Homo sapiens, UniProt Q6XUX3); conditions: RIPK5, 1 uM
T8 construct: purchased Ambit KINOMEscan (DiscoverX)
In short: as §1

[9] = molecular target: T9, NEK4 (Homo sapiens, UniProt P51957); conditions: NEK4, 1 uM
T9 construct: purchased Ambit KINOMEscan (DiscoverX)
In short: as §1

[10] = molecular target: T10, FLT3(K663Q) (Homo sapiens, UniProt P36888, K663Q); conditions: 1 uM
T10 construct: purchased Ambit KINOMEscan (DiscoverX)
In short: as §1

[11] = molecular target: T11, RET (Homo sapiens, UniProt P07949); conditions: 1 uM
T11 construct: purchased Ambit KINOMEscan (DiscoverX)
In short: as §1

[12] = molecular target: T12, EIF2AK1 (Homo sapiens, UniProt Q9BQI3); conditions: EIF2AK1, 1 uM
T12 construct: purchased Ambit KINOMEscan (DiscoverX)
In short: as §1

[13] = molecular target: T13, CAMK2G (Homo sapiens, UniProt Q13555); conditions: 1 uM
T13 construct: purchased Ambit KINOMEscan (DiscoverX)
In short: as §1

[14] = molecular target: T14, RET(V804M) (Homo sapiens, UniProt P07949, V804M); conditions: 1 uM
T14 construct: purchased Ambit KINOMEscan (DiscoverX)
In short: as §1

[15] = molecular target: T15, LRRK2 (Homo sapiens, UniProt Q5S007); conditions: LRRK2, 1 uM
T15 construct: purchased Ambit KINOMEscan (DiscoverX)
T15 sequence (Q5S007 whole entry): as the sequence (Q5S007 whole entry G2019S) above, with S2019G counted along it
In short: as §1

[16] = molecular target: T16, VRK2 (Homo sapiens, UniProt Q86Y07); conditions: VRK2, 1 uM
T16 construct: purchased Ambit KINOMEscan (DiscoverX)
T16 sequence (Q86Y07 whole entry): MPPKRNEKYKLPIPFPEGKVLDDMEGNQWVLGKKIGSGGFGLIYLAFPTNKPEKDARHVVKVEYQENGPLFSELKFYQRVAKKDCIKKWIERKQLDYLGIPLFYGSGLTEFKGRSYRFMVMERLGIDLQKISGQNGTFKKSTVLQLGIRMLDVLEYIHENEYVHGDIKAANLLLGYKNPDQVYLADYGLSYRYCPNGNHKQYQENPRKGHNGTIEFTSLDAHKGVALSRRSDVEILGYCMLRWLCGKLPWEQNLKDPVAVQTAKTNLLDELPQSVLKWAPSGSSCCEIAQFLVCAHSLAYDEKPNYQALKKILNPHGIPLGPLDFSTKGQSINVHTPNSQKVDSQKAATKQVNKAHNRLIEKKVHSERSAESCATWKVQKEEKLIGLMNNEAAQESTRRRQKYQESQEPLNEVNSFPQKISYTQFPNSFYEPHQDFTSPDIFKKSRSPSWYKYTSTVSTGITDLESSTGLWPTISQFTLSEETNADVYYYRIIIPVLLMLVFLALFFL
In short: as §1

[17] = molecular target: T17, EGFR(T790M) (Homo sapiens, UniProt P00533, T790M); conditions: 1 uM
T17 construct: purchased Ambit KINOMEscan (DiscoverX)
In short: as §1

[18] = molecular target: T18, TRPM6 (Homo sapiens, UniProt Q9BX84); conditions: TRPM6, 1 uM
T18 construct: purchased Ambit KINOMEscan (DiscoverX)
In short: as §1

[19] = molecular target: T19, RPS6KA6(Kin.Dom.1-N-terminal) (Homo sapiens, UniProt Q9UK32); conditions: 1 uM
T19 construct: RPS6KA6(Kin.Dom.1-N-terminal); purchased Ambit KINOMEscan (DiscoverX)
T19 sequence (Q9UK32 1-400 limits assumed): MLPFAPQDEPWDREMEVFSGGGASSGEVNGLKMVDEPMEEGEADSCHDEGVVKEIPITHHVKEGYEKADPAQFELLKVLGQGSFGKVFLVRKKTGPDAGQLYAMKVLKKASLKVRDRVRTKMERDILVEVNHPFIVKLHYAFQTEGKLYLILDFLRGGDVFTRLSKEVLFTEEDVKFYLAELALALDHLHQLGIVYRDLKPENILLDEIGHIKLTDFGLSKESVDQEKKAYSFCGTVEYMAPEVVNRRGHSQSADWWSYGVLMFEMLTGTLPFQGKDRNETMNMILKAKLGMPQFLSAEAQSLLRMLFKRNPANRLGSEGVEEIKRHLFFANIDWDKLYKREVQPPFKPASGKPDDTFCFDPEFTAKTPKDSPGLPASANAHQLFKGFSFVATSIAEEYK
In short: as §1

[20] = molecular target: T20, EGFR(L861Q) (Homo sapiens, UniProt P00533, L861Q); conditions: 1 uM
T20 construct: purchased Ambit KINOMEscan (DiscoverX)
In short: as §1

[21] = molecular target: T21, FLT3 (Homo sapiens, UniProt P36888); conditions: FLT3, 1 uM
T21 construct: purchased Ambit KINOMEscan (DiscoverX)
In short: as §1

[22] = molecular target: T22, CDKL1 (Homo sapiens, UniProt Q00532); conditions: CDKL1, 1 uM
T22 construct: purchased Ambit KINOMEscan (DiscoverX)
In short: as §1

[23] = molecular target: T23, SNRK (Homo sapiens, UniProt Q9NRH2); conditions: 1 uM
T23 construct: purchased Ambit KINOMEscan (DiscoverX)
T23 sequence (Q9NRH2 whole entry): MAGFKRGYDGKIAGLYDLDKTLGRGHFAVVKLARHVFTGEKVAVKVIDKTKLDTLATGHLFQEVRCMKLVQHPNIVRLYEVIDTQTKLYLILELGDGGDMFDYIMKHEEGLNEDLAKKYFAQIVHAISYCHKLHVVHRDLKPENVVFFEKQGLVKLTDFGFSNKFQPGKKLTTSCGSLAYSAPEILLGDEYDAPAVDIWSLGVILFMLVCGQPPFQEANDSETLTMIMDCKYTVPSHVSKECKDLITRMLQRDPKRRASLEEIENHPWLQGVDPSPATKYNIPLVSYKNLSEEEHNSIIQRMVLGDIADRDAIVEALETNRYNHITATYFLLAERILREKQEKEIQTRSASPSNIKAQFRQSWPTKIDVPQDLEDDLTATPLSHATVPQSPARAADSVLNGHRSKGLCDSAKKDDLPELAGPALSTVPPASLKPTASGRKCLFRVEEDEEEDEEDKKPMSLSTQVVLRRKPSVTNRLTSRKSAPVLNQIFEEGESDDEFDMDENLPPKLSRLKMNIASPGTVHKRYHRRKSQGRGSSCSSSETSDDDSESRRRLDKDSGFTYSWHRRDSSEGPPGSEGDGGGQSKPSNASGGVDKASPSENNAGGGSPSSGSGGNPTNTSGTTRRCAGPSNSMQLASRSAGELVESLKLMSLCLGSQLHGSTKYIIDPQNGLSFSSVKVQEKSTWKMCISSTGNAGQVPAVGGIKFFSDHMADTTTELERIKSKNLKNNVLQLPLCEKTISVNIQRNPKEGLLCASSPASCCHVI
In short: as §1

[24] = molecular target: T24, RPS6KA3(Kin.Dom.1-N-terminal) (Homo sapiens, UniProt P51812); conditions: 1 uM
T24 construct: RPS6KA3(Kin.Dom.1-N-terminal); purchased Ambit KINOMEscan (DiscoverX)
In short: as §1

[25] = molecular target: T25, ABL1(F317L)-nonphosphorylated (Homo sapiens, UniProt P00519, F317L); conditions: 1 uM
T25 construct: purchased Ambit KINOMEscan (DiscoverX)
In short: as §1

[26] = molecular target: T26, CDK5 (Homo sapiens, UniProt Q00535); conditions: CDK5, 1 uM
T26 construct: purchased Ambit KINOMEscan (DiscoverX)
In short: as §1

[27] = molecular target: T27, NEK11 (Homo sapiens, UniProt Q8NG66); conditions: NEK11, 1 uM
T27 construct: purchased Ambit KINOMEscan (DiscoverX)
In short: as §1

[28] = molecular target: T28, TLK2 (Homo sapiens, UniProt Q86UE8); conditions: TLK2, 1 uM
T28 construct: purchased Ambit KINOMEscan (DiscoverX)
In short: as §1

[29] = molecular target: T29, PIP5K1C (Homo sapiens, UniProt O60331); conditions: 1 uM
T29 construct: purchased Ambit KINOMEscan (DiscoverX)
In short: as §1

[30] = molecular target: T30, p38-delta (Homo sapiens, UniProt O15264); conditions: 1 uM
T30 construct: purchased Ambit KINOMEscan (DiscoverX)
In short: as §1

[31] = molecular target: T31, IRAK4 (Homo sapiens, UniProt Q9NWZ3); conditions: IRAK4, 1 uM
T31 construct: purchased Ambit KINOMEscan (DiscoverX)
In short: as §1

[32] = molecular target: T32, PIP5K2C (Homo sapiens, UniProt Q8TBX8); conditions: 1 uM
T32 construct: purchased Ambit KINOMEscan (DiscoverX)
In short: as §1

[33] = molecular target: T33, EGFR(S752-I759del) (Homo sapiens, UniProt P00533, DEL752-759); conditions: 1 uM
T33 construct: purchased Ambit KINOMEscan (DiscoverX)
T33 sequence (P00533 with tags, fused parts or gaps DEL752-759 limits assumed): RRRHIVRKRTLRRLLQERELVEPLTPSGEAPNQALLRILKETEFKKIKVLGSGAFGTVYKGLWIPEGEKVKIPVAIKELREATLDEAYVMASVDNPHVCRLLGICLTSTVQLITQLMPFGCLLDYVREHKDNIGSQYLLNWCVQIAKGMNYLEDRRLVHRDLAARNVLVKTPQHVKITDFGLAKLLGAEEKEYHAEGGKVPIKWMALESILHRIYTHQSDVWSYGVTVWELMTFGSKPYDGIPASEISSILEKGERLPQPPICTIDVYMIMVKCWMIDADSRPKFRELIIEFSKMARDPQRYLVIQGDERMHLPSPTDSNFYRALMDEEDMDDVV
In short: as §1

[34] = molecular target: T34, EPHA7 (Homo sapiens, UniProt Q15375); conditions: EPHA7, 1 uM
T34 construct: purchased Ambit KINOMEscan (DiscoverX)
In short: as §1

[35] = molecular target: T35, S6K1 (Homo sapiens, UniProt P23443); conditions: S6K1, 1 uM
T35 construct: purchased Ambit KINOMEscan (DiscoverX)
In short: as §1

[36] = molecular target: T36, DCAMKL2 (Homo sapiens, UniProt Q8N568); conditions: DCAMKL2, 1 uM
T36 construct: purchased Ambit KINOMEscan (DiscoverX)
In short: as §1

[37] = molecular target: T37, PRKCI (Homo sapiens, UniProt P41743); conditions: 1 uM
T37 construct: purchased Ambit KINOMEscan (DiscoverX)
In short: as §1

SMILES: COc1ccc(-c2cc3nccn3c(Nc3ncccc3C(N)=O)n2)cc1OC.Cl.Cl [BAY61-3606, 2-[7-(3,4-dimethoxyphenyl)-imidazo [1,2-c]pyrimidin-5-ylamino] nicotinamide dihydrochloride, reference compound]
- % binding compared to no inhibitor control [1]: 89%
- % binding compared to no inhibitor control [2]: 92%

SMILES: COc1ccccc1Nc1nc(-c2ccc(OC)c(OC)c2)cc2nccn12 [BAY derivative 6]
- % binding compared to no inhibitor control [3]: 100%
- % binding compared to no inhibitor control [4]: 100%
- % binding compared to no inhibitor control [5]: 85%
- % binding compared to no inhibitor control [6]: 92%
- % binding compared to no inhibitor control [7]: 100%
- % binding compared to no inhibitor control [8]: 100%
- % binding compared to no inhibitor control [9]: 85%
- % binding compared to no inhibitor control [10]: 63%
- % binding compared to no inhibitor control [11]: 100%
- % binding compared to no inhibitor control [12]: 88%
- % binding compared to no inhibitor control [13]: 100%
- % binding compared to no inhibitor control [14]: 94%
- % binding compared to no inhibitor control [15]: 95%
- % binding compared to no inhibitor control [16]: 88%
- % binding compared to no inhibitor control [17]: 48%
- % binding compared to no inhibitor control [18]: 95%
- % binding compared to no inhibitor control [19]: 70%
- % binding compared to no inhibitor control [20]: 68%
- % binding compared to no inhibitor control [21]: 52%
- % binding compared to no inhibitor control [22]: 100%
- % binding compared to no inhibitor control [23]: 94%
- % binding compared to no inhibitor control [24]: 96%
- % binding compared to no inhibitor control [25]: 100%
- % binding compared to no inhibitor control [26]: 100%
- % binding compared to no inhibitor control [27]: 84%
- % binding compared to no inhibitor control [28]: 100%
- % binding compared to no inhibitor control [29]: 71%
- % binding compared to no inhibitor control [30]: 100%
- % binding compared to no inhibitor control [31]: 100%
- % binding compared to no inhibitor control [32]: 99%
- % binding compared to no inhibitor control [33]: 72%
- % binding compared to no inhibitor control [34]: 100%
- % binding compared to no inhibitor control [35]: 84%
- % binding compared to no inhibitor control [36]: 100%
- % binding compared to no inhibitor control [37]: 100%
